Results: patent US20250011288A1 (BRISTOL-MYERS SQUIBB COMPANY, priority 2021, published 2025)

What follows are molecules tested against T1, human RXFP1 (Homo sapiens, UniProt Q9HBX9) (assay: human RXFP1 (hRXFP1) HEK293 cAMP assay (HTRF)). Settings: HEK293 cells stably expressing human RXFP1, 30 min at room temperature.
T1 construct: expressed in transfected cells
T1 sequence (Q9HBX9 1-757): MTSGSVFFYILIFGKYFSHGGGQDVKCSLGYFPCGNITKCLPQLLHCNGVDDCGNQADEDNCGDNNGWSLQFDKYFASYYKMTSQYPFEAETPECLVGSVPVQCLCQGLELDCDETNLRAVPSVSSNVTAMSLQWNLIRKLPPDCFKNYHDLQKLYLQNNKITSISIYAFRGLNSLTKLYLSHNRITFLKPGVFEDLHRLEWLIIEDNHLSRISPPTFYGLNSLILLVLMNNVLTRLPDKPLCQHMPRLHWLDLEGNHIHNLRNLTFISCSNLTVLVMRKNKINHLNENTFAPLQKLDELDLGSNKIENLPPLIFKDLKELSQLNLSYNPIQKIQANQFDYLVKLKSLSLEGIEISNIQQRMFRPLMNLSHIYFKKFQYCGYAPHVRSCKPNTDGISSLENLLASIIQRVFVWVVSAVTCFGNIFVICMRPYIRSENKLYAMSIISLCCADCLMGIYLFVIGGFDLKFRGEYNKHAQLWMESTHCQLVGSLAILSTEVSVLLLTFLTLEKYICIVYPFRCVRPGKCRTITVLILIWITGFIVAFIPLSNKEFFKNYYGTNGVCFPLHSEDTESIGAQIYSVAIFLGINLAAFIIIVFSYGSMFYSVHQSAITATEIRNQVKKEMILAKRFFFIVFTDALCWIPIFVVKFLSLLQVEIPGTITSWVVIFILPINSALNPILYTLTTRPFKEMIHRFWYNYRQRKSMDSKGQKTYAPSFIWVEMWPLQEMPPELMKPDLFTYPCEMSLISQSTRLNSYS
Format: cell-based
Method: RXFP1 Cyclic Adenosine Monophosphate (cAMP) Assays. […] Cells were dissociated and suspended in assay buffer. The assay buffer was HBSS buffer (with calcium and magnesium) containing 20 mM HEPES, 0.05% BSA, and 0.5 mM IBMX. Cells (3000 cells per well, except 1500 cell per well for HEK293 cells stably expressing human RXFP1) were added to 384-well Proxiplates (Perkin-Elmer). Cells were immediately treated with test compounds in DMSO (2% final) at final concentrations in the range of 0.010 nM to 50 µM. Cells were incubated for 30 min at room temperature. The level of intracellular cAMP was determined using the HTRF HiRange cAMP assay reagent kit (Cisbio) according to manufacturer's instructions. Solutions of cryptate conjugated anti-cAMP and d2 fluorophore-labelled cAMP were made in a supplied lysis buffer separately. Upon completion of the reaction, the cells were lysed with equal volume of the d2-cAMP solution and anti-cAMP solution. […] The potency and activity of a compound to […] cAMP production was then determined by fitting to a 4-parametric logistic equation from a plot of cAMP level versus compound concentrations.
Molecule `COc1cc(C2=NOC3CC(COC(=O)Nc4ccccc4)CC23)cc(C(=O)N[C@@H]2C3CCC(/C3=C/C3CC3)[C@@H]2C(=O)Nc2ccc(F)c(C(F)(F)F)c2)n1` (stereo partly drawn) [Example 158, [3-(2-{[(2R,3S,7Z)-7-(cyclopropyl-methylidene)-3-{[4-fluoro-3-(trifluoromethyl)phenyl]carbamoyl}bicyclo[2.2.1]heptan-2-yl]carbamoyl}-6-methoxypyridin-4-yl)-3aH,4H,5H,6H, 6aH-cyclopenta[d][1,2]oxazol-5-yl]methyl N-phenylcarbamate] has an EC50 of 7.8 nM. `CCC(O)C1CC2ON=C(c3cnc(OC)c(C(=O)N[C@H]4[C@@H](C(=O)Nc5ccc(F)c(C(F)(F)F)c5)[C@H]5CC[C@@H]4/C5=C\C4CC4)c3)C2C1` (stereo partly drawn) [Example 113, N-((1R,2R,3S,4R,Z)-7-(cyclopropyl-methylene)-3-((4-fluoro-3-(trifluoromethyl)phenyl)carbamoyl)bicyclo[2.2.1]heptan-2-yl)-5-(5-(1-hydroxypropyl)-3a,5,6,6a-tetrahydro-4H-cyclopenta[d]isoxazol-3-yl)-2-methoxynicotinamide] was tested, and the EC50 was 4.3 nM. `COc1ncc(-c2cc([C@H](O)C(F)(F)F)ccc2F)nc1C(=O)N[C@@H]1C2CCC(/C2=C/C(F)(F)F)[C@@H]1C(=O)Nc1ccc(F)c(C(F)(F)F)c1` (stereo partly drawn) [Example 34, N-[(2R,3S,7Z)-3-{[4-fluoro-3-(trifluoromethyl)phenyl]carbamoyl}-7-(2,2,2-trifluoroethylidene)bicyclo[2.2.1]heptan-2-yl]-6-{2-fluoro-5-[(1S)-2,2,2-trifluoro-1-hydroxyethyl]phenyl}-3-methoxypyrazine-2-carboxamide] showed an EC50 of 3000 nM. Work on `COc1ncc(CCCO)cc1C(=O)N[C@@H]1C2CCC(/C2=C/C(F)(F)F)[C@@H]1C(=O)Nc1ccc(F)c(C(F)(F)F)c1` (stereo partly drawn) [Example 50, N-[(2R,3S,7Z)-3-{[4-fluoro-3-(trifluoromethyl)phenyl]carbamoyl}-7-(2,2,2-trifluoroethylidene)bicyclo[2.2.1]heptan-2-yl]-5-(3-hydroxypropyl)-2-methoxypyridine-3-carboxamide] yielded an EC50 of 129 nM. For `COc1ncccc1C(=O)N[C@@H]1C2CCC(C2=C(C)C)[C@@H]1C(=O)Nc1ccc(F)c(C(F)(F)F)c1` (stereo partly drawn) [Example 8, N-[(2R,3S)-3-{[4-fluoro-3-(trifluoromethyl)phenyl]carbamoyl}-7-(propan-2-ylidene)bicyclo [2.2.1]heptan-2-yl]-2-methoxypyridine-3-carboxamide], the EC50 was 1300 nM. With `COc1ncc(C2=NO[C@@H]3C[C@H](CO)CN23)cc1C(=O)N[C@@H]1C2CCC(/C2=C/C2CC2)[C@@H]1C(=O)N[C@H](C)C1(C)CC1` (stereo partly drawn) [Example 106, N-((1R,2R,3S,4R,Z)-7-(cyclopropyl-methylene)-3-(((R)-1-(1-methylcyclopropyl)ethyl)carbamoyl)bicyclo[2.2.1]heptan-2-yl)-5-((6S,7aR)-6-(hydroxymethyl)-5,6,7,7a-tetrahydropyrrolo [1,2-d][1,2,4]oxadiazo 1-3-yl)-2-methoxynicotinamide] the EC50 was 1.8 nM. `COc1ncc(-c2cc([C@H](OC(=O)Nc3ccccc3)C(F)(F)F)ccc2F)nc1C(=O)N[C@@H]1C2CCC(/C2=C/C(F)(F)F)[C@@H]1C(=O)Nc1ccc(F)c(C(F)(F)F)c1` (stereo partly drawn) [Example 35, (1S)-2,2,2-trifluoro-1-[4-fluoro-3-(6-{[(2R,3S,7Z)-3-{[4-fluoro-3-(trifluoromethyl)phenyl]carbamoyl}-7-(2,2,2-trifluoroethylidene)bicyclo[2.2.1]heptan-2-yl]carbamoyl}-5-methoxypyrazine-2-yl)phenyl]ethyl N-phenylcarbamate] showed an EC50 of 42 nM. Molecule `COc1cn(CCS(C)(=O)=O)nc1C(=O)N[C@H]1[C@@H](C(=O)Nc2ccc(F)c(C(F)(F)F)c2)[C@H]2CC[C@@H]1/C2=C\C1CC1` [Example 77, N-[(1R,2R,3S,4R,7Z)-7-(cyclopropylmethylidene)-3-{[4-fluoro-3-(trifluoromethyl)phenyl]carbamoyl}bicyclo[2.2.1]heptan-2-yl]-1-(2-methanesulfonylethyl)-4-methoxy-1H-pyrazole-3-carboxamide] has an EC50 of 71 nM. For `O=C(N[C@@H]1C2CCC(/C2=C/C(F)(F)F)[C@@H]1C(=O)Nc1ccc(F)c(C(F)(F)F)c1)c1cc(Br)ncc1OCCO` (stereo partly drawn) [Example 45, 2-Bromo-N-[(2R,3S,7Z)-3-{[4-fluoro-3-(trifluoromethyl)phenyl]carbamoyl}-7-(2,2,2-trifluoroethylidene)bicyclo[2. 2.1]heptan-2-yl]-5-(2-hydroxyethoxy) pyridine-4-carboxamide], the EC50 was 560 nM. Work on `COc1ncc(C2=NOC3CC(C(O)C(F)(F)F)CC23)cc1C(=O)N[C@H]1[C@@H](C(=O)NC23CC(C#N)(C2)C3)[C@H]2CC[C@@H]1/C2=C\C1CC1` (stereo partly drawn) [Example 108, N-((1R,2R,3S,4R,Z)-3-((3-cyanobicyclo [1.1.1]pentan-1-yl)carbamoyl)-7-(cyclopropyl-methylene)bicyclo[2.2.1]heptan-2-yl)-2-methoxy-5-(5-(2,2,2-trifluoro-1-hydroxyethyl)-3a,5,6,6a-tetrahydro-4H-cyclopenta[d]isoxazol-3-yl)nicotinamide] yielded an EC50 of 3.5 nM. For `COc1ncc(C2=NOC3CC(C(N)=O)CC23)cc1C(=O)N[C@H]1[C@@H](C(=O)Nc2ccc(F)c(C(F)(F)F)c2)[C@H]2CC[C@@H]1/C2=C\C1CC1` (stereo partly drawn) [Example 66, 5-{5-carbamoyl-3aH,4H,5H,6H, 6aH-cyclopenta[d][1, 2]oxazol-3-yl}-N-[(1R,2R,3S, 4R,7Z)-7-(cyclopropylmethylidene)-3-{[4-fluoro-3-(trifluoromethyl)phenyl]carbamoyl}bicyclo[2.2.1]heptan-2-yl]-2-methoxypyridine-3-carboxamide], the EC50 was 1.3 nM. For `CC1(C)Cc2cc(C3=NOC4CCOCC34)cc(C(=O)N[C@H]3[C@@H](C(=O)Nc4ccc(F)c(C(F)(F)F)c4)[C@H]4CC[C@@H]3/C4=C\C3CC3)c2O1` (stereo partly drawn) [Example 147, 5-{3aH,4H,6H, 7H,7aH-pyrano[3,4-d][1,2]oxazol-3-yl}-N-[(1R,2R,3S,4R,7Z)-7-(cyclopropyl-methylidene)-3-{[4-fluoro-3-(trifluoromethyl)phenyl]carbamoyl}bicyclo[2.2.1]heptan-2-yl]-2,2-dimethyl-2,3-dihydro-1-benzofuran-7-carboxamide], the EC50 was 3.8 nM. With `O=C(NC1CCC1)O[C@@H](c1ccc(F)c(-c2cc(C(=O)N[C@@H]3C4CCC(/C4=C/C(F)(F)F)[C@@H]3C(=O)Nc3ccc(F)c(C(F)(F)F)c3)c(OCCO)cn2)c1)C(F)(F)F` (stereo partly drawn) [Example 46, (1S)-2,2,2-trifluoro-1-[4-fluoro-3-(4-{[(2R,3S,7Z)-3-{[4-fluoro-3-(trifluoromethyl)phenyl]carbamoyl}-7-(2,2,2-trifluoroethylidene)bicyclo[2. 2.1]heptan-2-yl]carbamoyl}-5-(2-hydroxyethoxy)pyridin-2-yl)phenyl]ethyl N-cyclobutyl-carbamate] the EC50 was 65 nM. `COc1ncc(C2=NOC3CC(CO)CC23)cc1C(=O)N[C@@H]1C2CCC(/C2=C/C2CC2)[C@@H]1C(=O)N[C@H](C)C1(C(F)(F)F)CC1` (some centres unmarked) [Example 141] was tested, and the EC50 was 3.4 nM. Work on `Cn1c(=O)c(C(=O)N[C@@H]2C3CCC(/C3=C/C(F)(F)F)[C@@H]2C(=O)Nc2ccc(F)c(C(F)(F)F)c2)cc2ccccc21` (stereo partly drawn) [Example 15, N-[(2R,3S,7Z)-3-{[4-fluoro-3-(trifluoromethyl)phenyl]carbamoyl}-7-(2.2,2-trifluoroethylidene)bicyclo[2. 2.1]heptan-2-yl]-1-methyl-2-oxo-1,2-dihydroquinoline-3-carboxamide] yielded an EC50 of 3500 nM. Work on `COc1ncc(C2=NOC3CC(C(OC(=O)Nc4ccccc4)C4CC4)CC23)cc1C(=O)N[C@@H]1C2CCC(/C2=C/C2CCCC2)[C@@H]1C(=O)Nc1ccc(F)c(C(F)(F)F)c1` (stereo partly drawn) [Example 162, [3-(5-{[(2R,3S,7Z)-7-(cyclopentyl-methylidene)-3-{[4-fluoro-3-(trifluoromethyl)phenyl]carbamoyl}bicyclo[2.2.1]heptan-2-yl]carbamoyl}-6-methoxypyridin-3-yl)-3aH,4H,5H,6H, 6aH-cyclopenta[d][1,2]oxazol-5-yl](cyclopropyl) methyl N-phenylcarbamate] yielded an EC50 of 4.6 nM. Work on `O=C(N[C@@H]1C2CCC(/C2=C/C(F)(F)F)[C@@H]1C(=O)Nc1ccc(F)c(C(F)(F)F)c1)c1cnc2ccc(Cl)cc2c1` (stereo partly drawn) [Example 17, 6-chloro-N-[(2R,3S,7Z)-3-{[4-fluoro-3-(trifluoromethyl)phenyl]carbamoyl}-7-(2,2,2-trifluoroethylidene)bicyclo[2.2.1]heptan-2-yl]quinoline-3-carboxamide] yielded an EC50 of 4500 nM.
